Experimental data from PMC3517777, “Phase I study of TP300 in patients with advanced solid tumors with pharmacokinetic, pharmacogenetic and pharmacodynamic analyses” (BMC Cancer, 2012).

Tests used:
[1] = Plasma and urine pharmacokinetics after TP300 infusion (LC-MS/MS, non-compartmental); format: in vivo, human; conditions: for fe (urinary excretion ratio): urine up to 48 hours, mean
Method: Venous blood (3 mL) was taken into sodium heparin tubes containing 30 μL of 46% citric acid, centrifuged 1500g at 4°C for 10 min and 1 mol/L hydrochloric acid was added (1:10) to plasma from each subject at 10 time points during cycle 1 (pre dose, then 1, 1.25, 1.5, 2, 3, 5, 8, 24, 48 hours after the start of administration) and stored at −70°C. Samples were processed by extraction of protein using addition of organic solvent containing internal standards and assayed by LC-MS/MS with a robust, sensitive and validated method for the simultaneous determination of a novel topoisomerase 1 inhibitor CH0793076 (TP3076), the prodrug CH4556300 (TP300), and the active metabolite CH0793011 (TP3011). All plasma had been acidified during collection to avoid the pH-based degradation of TP300 and to shift the equilibria of TP3076 and TP3011 between the lactone and carboxylate forms towards the lactone forms. After the plasma proteins were precipitated with methanol:acetonitrile:HCl 1M (50:50:1, v:v:v) containing stable isotopic internal standards, the analytes were trapped on an Xterra MS C18 column (10×2.1 mm i.d., 5 μm) and separated on a Gemini C18 column (50×2.0 mm i.d., 5 μm) using column-switching liquid chromatography. Electrospray ionization in the positive-ion mode and multiple reaction monitoring were used to quantify the analytes with transitions m/z 587.2>441.2 for TP300, 459.1>415.2 for 3076, and 475.1>361.1 for 3011. The inter- and intra-day precisions were below 12%, and the accuracy was between −16% and 16% at the lower limit of quantitation (LLOQ) and between −11% and 14% at the other quality controls. The LLOQs of TP300, TP3076, and TP3011 were 0.8, 0.04, and 0.04 ng/mL, respectively.
Pharmacokinetic parameters derived from plasma concentration-time data of TP3076 or TP3011 by non-compartmental methods using WinNonlin (version 5.1; Pharsight Corp), included maximal plasma concentration (Cmax) and time of Cmax (Tmax), apparent plasma elimination half-life (t1/2), and the area under the curve (AUC). The urinary excretion ratio (fe) of TP3076 and TP3011 was calculated from the urinary concentration and volume up to 48 hours after administration, and the administration dose. The linearity of Cmax and AUC was determined with linear regression, analysis of variance and power model analysis. The sum of the AUCs of TP3076 and TP3011 was plotted against percentage (%) fall in nadir neutrophil count to explore the relationship between exposure and myelosuppression as a measure of anti-proliferative effect and a sigmoid Emax model fitted to the data: […]

[2] = system: AOX1; conditions: human, in vivo
Method: (§1) Blood samples for pharmacogenomic analysis were collected and all samples anonymised for subsequent storage, assay and analysis. The impact on Cmax and AUC of genetic polymorphisms of CYP2D6, which is assumed to make some contribution to the hydroxylation of TP3076, but not TP3011, AOX1, which metabolises TP3076 to TP3011, and UGT1A1, which metabolises SN-38 to its glucuronide, but is not believed to influence TP300 metabolism were explored. The analysis was performed with the invader method or polymerase chain reaction (PCR)-invader method for single nucleotide polymorphisms (SNPs) of CYP2D6 and UGT1A1 *28 and with the long-PCR method for deletion of CYP2D6 and UGT1A1 gene. AOX1 SNPs were analysed by a direct sequencing method. Genomic DNAs were extracted from frozen peripheral blood of 31 subjects using an automated DNA extractor BioRobotMDx and commercial DNA purification kits (Qiagen). Quality and quantity of the DNAs were checked by the measurement of absorbencies at 260 nm and 280 nm. Primers were designed to amplify all the 35 exons of Aldehyde oxidese 1 gene (NCBI accession No. NM_001159) including some intronic flanking regions. The specificity of PCR conditions was confirmed by the agarose gel electrophoresis. Amplicons were prepared twice for every exons. The amplicons were subsequently treated with ExoSAP-IT (GE Healthcare) followed by the reactions with a cycle sequencing kit (BigDye Terminator v3.1, Applied Biosystems). The fragments obtained were purified using X-Terninator purification kit (Applied Biosystems) and analysed on an automated DNA sequencer (3730xl DNA Analyzer, Applied Biosystems). The resulted sequences were compared against the reference sequence using the variant reporter software (Applied Biosystems).

[3] = system: UGT1A1; conditions: human, in vivo
Method: as §1

[4] = system: CYP2D6; set-up: species or system human; conditions: in vivo
Method: as §1, with “The specificity of PCR conditions was confirmed by the agarose gel electrophoresis. Amplicons were prepared twice for every exons. The amplicons were subsequently treated with ExoSAP-IT (GE Healthcare) followed by the reactions with a cycle sequencing kit (BigDye Terminator v3.1, Applied Biosystems).” left out, “The resulted sequences were compared against the reference sequence using the variant reporter software (Applied Biosystems).” left out

[5] = system: Topo-1; set-up: method as in PMID 19495753; conditions: cited from earlier work
[6] = system: HCT-116 colorectal cancer cells; set-up: method as in PMID 19254843; conditions: HCT-116 colorectal cancer cells in vitro; cited from earlier work
[7] = set-up: method as in PMID 10873073; conditions: irinotecan 350 mg/m^2, 3-weekly dosing regimen; cited from earlier work
[8] = TP300 1 mg/m^2 1-hour i.v. infusion, N=3
[9] = TP300 2 mg/m^2 1-hour i.v. infusion, N=3
[10] = TP300 4 mg/m^2 1-hour i.v. infusion, N=3
[11] = TP300 6 mg/m^2 1-hour i.v. infusion, N=3
[12] = TP300 8 mg/m^2 1-hour i.v. infusion, N=3
[13] = TP300 10 mg/m^2 1-hour i.v. infusion, N=12
[14] = TP300 12 mg/m^2 1-hour i.v. infusion, N=4

Row | SMILES | fe (urinary excretion ratio) [1, 8] | fe (urinary excretion ratio) [1, 9] | fe (urinary excretion ratio) [1, 10] | fe (urinary excretion ratio) [1, 11] | fe (urinary excretion ratio) [1, 12] | fe (urinary excretion ratio) [1, 13] | fe (urinary excretion ratio) [1, 14] | Urinary excretion ratios ([1]; human, in vivo) | dose dependence of Cmax and AUC ([1]; human, in vivo) | Tmax ([1]; human, in vivo, Tmax) | half-life ([1]; human, in vivo, iv, t1/2) | difference of exposure (Cmax, AUC) among AOX1 (c3404A > G) genotypes [2] | difference in exposure (Cmax, AUC) among UGT1A1*28 genotypes [3] | exposure in CYP2D6 extensive metabolisers [4] | Topo-1 inhibition relative to SN38 [5] | IC50 [6] | AUC of SN-38 at which DLTs occur [7] | Tmax ([1]; human, in vivo, iv, tmax) | Glucuronidated TP3076 (detection) ([1]; in vivo)
1 | CCCCCN1C(=O)Nc2cccc3nc4c(c1c23)Cn1c-4cc2c(c1=O)COC(=O)[C@]2(O)CC [TP3011] | 0.792% | 0.739% | 0.796% | 0.593% | 0.594% | 1.10% | 1.99% | at most 6% | increased proportionately | 3 to 5 h | 6.92 h | no apparent significant difference | no apparent significant difference | slight decrease | equipotent | sub-nanomolar range |  |  | 
2 | CCc1c2c(nc3ccc(O)cc13)-c1cc3c(c(=O)n1C2)COC(=O)[C@]3(O)CC [SN-38] |  |  |  |  |  |  |  |  |  |  |  |  |  |  |  |  | 1.5 µM·h |  | 
3 | CCCCCN1C=Nc2cccc3nc4c(c1c23)Cn1c-4cc2c(c1=O)COC(=O)[C@]2(O)CC [TP3076] | 2.45% | 2.87% | 1.31% | 1.78% | 1.71% | 3.09% | 6.33% | at most 6% | increased proportionately | 1 h |  | no apparent significant difference | no apparent significant difference | slight reduction | equipotent | sub-nanomolar range |  | 1.26 h | not detected
